Source: PMC6287543 (International Journal for Parasitology: Drugs and Drug …, 2018)
Where “and” joins values, the source holds several entries; their conditions need not be identical. Identical values can stand only once. Entries after “also recorded” stand apart in the source; their conditions may differ.

Assays:
[1] = oral 60 mg/BID over 24 weeks; ref Kim et al., 2017; cited from earlier work
S. mansoni = experiment: Murine model of S. mansoni infection: worm burdens recovered by perfusion; type: in vivo, Schistosoma mansoni; settings: mice; for reduction in female worm burden / reduction in male worm burden: 42 dpi

Row | SMILES | tolerability [1] | efficacy against 21-day-old juvenile parasites (S. mansoni; 100 mg/kg PO QDx4 from 21 dpi, 100 mg/kg) | reduction in female worm burden (S. mansoni; single oral 200 mg/kg) | reduction in male worm burden (S. mansoni; single oral 200 mg/kg) | reduction in female worm burden (S. mansoni; single oral 400 mg/kg) | reduction in male worm burden (S. mansoni; single oral 400 mg/kg, 400 mg/kg) | worm kill, juvenile 21 day-old parasites (S. mansoni; single oral doses)
1 | Cc1c(-c2cnccn2)ssc1=S [Oltipraz] | well-tolerated |  |  |  |  |  | 
2 | O=C(C1CCCCC1)N1CC(=O)N2CCc3ccccc3C2C1 (stereo not shown) [PZQ, praziquantel] |  | ineffective; also recorded: essentially inactive | 97% | 78% | 100% | 100% and 97% | zero kill
